Laboratory results as given in patent US20100203110A1, “Therapeutics for Cancer Using 3-Bromopyruvate and Other Selective Inhibitors of ATP Production” (The Johns Hopkins University, priority 2006, published 2010).

Legend:
VX2 tumor glycolysis = test: Glycolytic activity (lactic acid formation) of VX2 tumor slices; type: cell-based, rabbit
Description: Glycolysis was assayed by monitoring the formation of lactic acid following the addition of glucose to a medium containing VX2 tumor slices. Specifically, freshly excised tumors were washed 3 times at 4° C. in 20 ml Chance Hess Medium containing 6.2 mM KCl, 154 mM NaCl, and 11 mM NaPi, pH 7.4. Slices, 1 g each, were then prior incubated for 30 min in a Lab-Line incubator-shaker at 37° C. in 2 ml of the same medium while shaking at 50 rpm. Glucose was then added to give a final concentration of 6 mM, after which the incubation/shaking process was continued with 0.2 ml samples being removed every 30 min for up to 2 h. These samples were subjected to centrifugation at 14,000 rpm in an Eppendorf Centrifuge (Model 5415C). Then, aliquots of the supernatant, 0.01 ml, were removed from each sample, diluted with 0.03 ml of water and subjected to lactic acid determination using the kit supplied by Sigma. The latter contains, in addition to lactic dehydrogenase and NAD+, hydrazine, and glycine buffer, pH 9.2. The mixture was incubated for 30 min at 25° C. after which the absorbance due to formation of NADH was determined at 340 nm using a Gilford Model 260 spectrophotometer. To assess the elevation of the glycolytic activity of the VX2 tumor over that of liver tissue, parallel studies were always carried out in an identical manner with 1 g liver slices derived from the host liver. Finally, in those cases where agents were tested for their capacity to inhibit glycolysis, these were introduced into the system at the prior incubation step with all subsequent steps being run in parallel with those described above for the VX2 tumor or liver alone.
The screen included the following 9 compounds: 2-deoxyglucose (2DOG), 2-fluoro-2-deoxyglucose, 6-fluoro-6-deoxyglucose, 3-O-methyl glucose, 5-thio-D-glucose-6-phosphate, L-glucose, D-xylose, D-lyxose, and 3-bromopyruvic acid (3BrPA). The screen was conducted by incubating VX2 tumor slices in a medium containing 6 mM glucose with 6 mM of each of these agents at 37° C. for 5 h. The use of 6 mM glucose in the medium was used to mimic the maximal amount of glucose that might be in the blood in a real in vivo situation.
To compare the inhibitory effects of 2DOG and 3BrPA on the glycolytic capacity of the isolated liver implanted VX2 tumor, various concentrations of 2DOG and 3BrPA were prior incubated for 30 min at 37° C. with 1 g VX2 tumor slices and glycolysis was monitored.

[1] = system: back adipose tissue (BAT); test: FDG uptake after IP injection in non-tumor bearing rats; type: in vivo, rat
Description: After having established the anti-glycolytic effect of 3-bromopyruvate in vitro, we designed a series of experiments to confirm this property in vivo. For this purpose, two different animal models, the Lewis rat mammary tumor model and the orthotopic VX2 rabbit liver cancer model were used. Since glucose uptake can be monitored using fluorine-labeled deoxyglucose (FDG), potential sites of decreased FDG uptake as a result of 3-bromopyruvate activity could be identified. The effects of intraperitonealy (IP) injected 3-bromopyruvate in non-tumor bearing rats were compared to those in tumor bearing rats. The tumors were derived from the rat mammary tumor (RMT) cell line and transplanted into the back adipose tissue of the rat and allowed to grow for 10 days. After having determined the maximum tolerated dose, all animals received two bolus doses (one hour apart) of 3-bromopyruvate injected IP. The FDG was injected 30 minutes after the first injection of 3-bromopyruvate and all animals were sacrificed 60 minutes after the FDG was injected. The tumors and all major organs were removed, weighed and analyzed in a gamma counter. […]

Type II hexokinase = target: T1, Type II hexokinase (Homo sapiens, UniProt P52789); test: Binding of 14C-labeled 3-bromopyruvate in Hep G2 cells (western blot / autoradiograph); details: 1 hour in HBSS
T1 construct: The cells were harvested, total protein extracted, purified and used to run a western blot; endogenous in cells; host or cells: Hep G2
T1 sequence (P52789 1-917): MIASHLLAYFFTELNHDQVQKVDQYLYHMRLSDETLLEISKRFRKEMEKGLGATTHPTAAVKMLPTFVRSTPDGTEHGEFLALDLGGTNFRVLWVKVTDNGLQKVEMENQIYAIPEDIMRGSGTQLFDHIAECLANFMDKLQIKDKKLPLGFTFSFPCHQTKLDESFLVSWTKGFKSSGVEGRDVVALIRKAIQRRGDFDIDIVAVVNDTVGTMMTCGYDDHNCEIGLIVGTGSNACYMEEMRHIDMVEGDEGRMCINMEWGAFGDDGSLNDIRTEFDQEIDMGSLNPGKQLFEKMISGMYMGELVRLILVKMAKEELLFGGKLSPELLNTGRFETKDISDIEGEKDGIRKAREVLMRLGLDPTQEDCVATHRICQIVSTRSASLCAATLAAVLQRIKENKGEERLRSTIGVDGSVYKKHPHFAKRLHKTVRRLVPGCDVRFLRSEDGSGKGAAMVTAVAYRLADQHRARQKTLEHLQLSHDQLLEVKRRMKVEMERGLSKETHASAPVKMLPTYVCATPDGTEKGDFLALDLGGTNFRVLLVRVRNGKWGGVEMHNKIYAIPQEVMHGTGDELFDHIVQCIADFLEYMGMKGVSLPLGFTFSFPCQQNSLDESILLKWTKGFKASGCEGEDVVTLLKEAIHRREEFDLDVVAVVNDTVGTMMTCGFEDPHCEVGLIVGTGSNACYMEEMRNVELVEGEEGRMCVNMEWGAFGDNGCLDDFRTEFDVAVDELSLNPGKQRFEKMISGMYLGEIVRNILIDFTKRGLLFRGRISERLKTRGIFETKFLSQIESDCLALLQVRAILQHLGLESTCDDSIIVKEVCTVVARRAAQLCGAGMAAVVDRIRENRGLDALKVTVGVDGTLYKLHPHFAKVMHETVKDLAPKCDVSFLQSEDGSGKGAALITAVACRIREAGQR
Description: In a further study, the human hepatocellular carcinoma cell line (HCC), Hep G2, was treated with ^14C-labeled 3-bromopyruvate for a period of 1 hour in HBSS. The cells were harvested, total protein extracted, purified and used to run a western blot. They were then transferred onto a membrane, probed with a Type II hexokinase specific antibody and the antibody binding signal was captured on film through Chemiluminescent detection system (western blotting). The corresponding gel was also separately exposed to an autoradiograph.

## O=C(O)C(=O)CBr [3-bromopyruvate]
VX2 tumor glycolysis; 6 mM agent, 6 mM glucose, VX2 tumor slices, 37° C., 5 h
  inhibition of VX2 tumor glycolysis (screen): almost completely inhibited
VX2 tumor glycolysis; VX2 tumor slices, 2DOG maximal (70%), 3BrPA complete
  concentration for maximal / complete inhibition of glycolysis: about 15 mM
VX2 tumor glycolysis; prior incubated 30 min at 37° C. with 1 g VX2 tumor slices, read-out: half maximal inhibition of glycolysis
  IC50: 2400 µM
[1]; two IP bolus doses
  FDG uptake in other organs: affected no other organs
[1]; two IP bolus doses one hour apart
  decrease in FDG uptake (percentage of injected dose per gram of tissue) in back adipose tissue: 10 fold
Type II hexokinase
  binding to Type II hexokinase: directly binds
